In one assay the test system is E. coli NCIMB 12210. Description: MIC assay of antibiotics with ATX-101. Conditions: Escherichia coli, NCIMB12210, E. coli NCIMB 12210, read-out: Est MIC. The format is cell-based, Escherichia coli. On the procedure: (§1) The minimum inhibitory concentration (MIC) of ATX-101 (SEQ ID NO: 1289) was determined for various gram negative and gram positive bacteria. The bacteria, Pseudomonas aeruginosa ATCC 15692, Acinetobacter baumenni ATCC 19600, Escherichia coli ATCC 25922, Pseudomonas aeruginosa TO-5A (clinical isolate), Enterococous faecium CCUG 37832, Enterococcus faecium CTC 492, Micrococcus luteus ATCC 9341 and Escherichie coli NCIMB 12210 were grown in the presence of various concentrations of ATX-101 and/or antibiotic.
(§2) ATX-101 was dissolved in Mueller-Hinton broth to 1.25 times of the desired assay concentration. Antibiotics were dissolved in Mueller-Hinton broth and Mueller-Hinton broth with ATX-101 at a concentration of 1.25 times the highest desired assay concentrations. Antibiotics were pharmaceutical grade purchased from Sigma-Aldrich.
(§3) Two-fold serial dilutions of antibiotics were made in Mueller-Hinton with different concentrations of ATX-101, and the solutions were placed in four parallel wells is Nunc 384-well micro plates (30 μl per well in Nunc 242757 microplates). A group of 8 wells with no addition of antibiotics for each ATX-101 concentration was included on each micro plate as a growth reference.
(§4) At the day of analysis, overnight TSB cultures inoculated from freeze stocks (6 ml in 50 ml tube tilted to 45-degrees angle, 200 rpm, 2.5 cm amplitude, 37° C.) were diluted in TSB until the OD800 was 0.10, and further diluted 1:40 in Mueller-Hinton broth. Each well in the 384-well assay plates was inoculated with 7.5 μl of the diluted culture, giving the same dilution of the culture in the assay cultures. The microplates were placed in plastic bags and incubated without shaking at 37° C. The optical density at 600 nm in the microwells was measured after approximately 19 hours of incubation, and the relative growth yield was calculated based on the growth in the reference groups. The MIC value was set to the highest concentration giving less than 30% growth in all 4 parallel wells within the sample groups. The microplates were further incubated for 6 hours, and optical density in the cultures was measured once more for confirmation of the estimated MIC-values.
(§5) The APIM peptide was dissolved in Mueller-Hinton broth to 1.25 times of the desired assay concentration. Antibiotics were dissolved in Mueller-Hinton broth and Mueller-Hinton broth with APIM at a concentration of 1.25 times the highest desired assay concentrations. Antibiotics were pharmaceutical grade purchased from Sigma-Aldrich.
(§6) Two-fold serial dilutions of antibiotics were made in Mueller-Hinton with different concentrations of APIM, and the solutions were placed in four parallel wells in Nunc 384-well micro plates (30 μl per well in Nunc 242757 microplates). A group of 8 wells with no addition of antibiotics for each APIM concentration was included on each micro plate as growth reference.
as §4, with “inoculated” for “inoculated from”, “OD600” for “OD800”, “culture.” for “culture, giving the same dilution of the culture in the assay cultures.”, “yield in each well” for “yield”

A further assay deals with E. faecium CTC 492. Description: MIC assay of antibiotics with ATX-101. The class given is cell-based, Enterococcus faecium. Conditions: Enterococcus faecium, CTC492, E. faecium CTC 492, read-out: Est MIC. On the procedure:
as §1, §2, §3, §4, §5, §6
as §4, with “inoculated” for “inoculated from”, “OD600” for “OD800”, “culture.” for “culture, giving the same dilution of the culture in the assay cultures.”, “yield in each well” for “yield”

A further assay relates to A. baumanii ATCC 19606. Put plainly: MIC assay of antibiotics with ATX-101. The format is cell-based. Conditions: Acinetobacter baumannii, ATCC19606, A. baumanii ATCC 19606, read-out: Est MIC. On the procedure: as §5, §6
as §4, with “inoculated” for “inoculated from”, “OD600” for “OD800”, “culture.” for “culture, giving the same dilution of the culture in the assay cultures.”, “yield in each well” for “yield”

Assay [1] concerns Staphylococcus aureus MRSA 1040s. Description: microbe, parasite or virus in culture. The class given is cell-based. Conditions: for MIC: 1040s; for MIC of Erythromycin (Relative values): concentration of APIM peptide 15 μg/ml, MRSA 1040s. On the procedure:
as §2, §3, §4, §5, §6
as §4, with “inoculated” for “inoculated from”, “OD600” for “OD800”, “culture.” for “culture, giving the same dilution of the culture in the assay cultures.”, “yield in each well” for “yield”
In view of the anti-bacterial effect of ATX-101 on strains of MRSA, the MIC for a variety of APIM variants was determined using Staphylococcus aureus MRSA 1040s. […] A cell penetrating peptide (SEQ ID NO: 337) present in all of the APIM peptides, was used as a negative control.
Next, the effect of APIM peptides on the MIC of antibiotics was determined using Staphylococcus aureus MRSA 1040s.
(§7) The MICS for various APIM peptides were determined for various bacteria, as described above.

In assay [2] the target is β-clamp protein from E. coli (Escherichia coli, UniProt P0A988). Put plainly: Microscale thermophoresis (MST). The format is binding. Conditions: no data could be obtained. On the procedure:
Microscale thermophoresis (MST) was used to determine the dissociation constant for various APIM containing peptides.
The β-clamp protein from E. coli was labeled with a fluorescent molecule. Concentration of PCNA was kept constant, whereas dilutions of each APIM containing peptide were prepared (1:1). In a mix of protein and peptide, the signal was recorded in all capillaries with varying concentrations of the unlabeled peptide, and any change of thermophoretic properties was observed as a change in fluorescence intensity.
A general note: MST reads how a fluorescent partner responds to local heating, with and without ligand.

The next assay concerns E. faecium TO-12. The format is cell-based. On the procedure: as §2, §3, §4, §7
The subject of assay [3] is Staphylococcus aureus NCTC 6571. The format is cell-based. The note with it: NCTC 6571. On the procedure: as §2, §3, §4, §7
Assay [4] concerns E. faecium CCUG 37832 (TO-3). The class given is cell-based, Enterococcus faecium. Conditions: CCUG 37832. On the procedure: as §2, §3, §4
Accordingly, concentrations of 8 μg/ml and 16 μg/ml of ATX-101 were combined with various antibiotics selected from; 2,4-Diamin, S. methizol, S. methoxa, S. dimetho, Surfaceta, Trimeth, Flumeq, Levoflox, Pruliflox, Metronid and Nitrofur.
as §7

A further assay has as its system bacteria. Description: MIC of other APIM peptides on bacteria. The class given is cell-based. Conditions: Example 2.
The test system of another assay is E. coli BL21 (ripl). Put plainly: Overexpression of APIM peptides in E. coli, growth. The format is cell-based. The note with it: induction with 1 mM IPTG, no cell-penetrating peptide; FIG. 9, 10. The source says: In order to verify further that the anti-microbial effect of the APIM peptides arise from the APIM sequence, peptides containing only the APIM sequence (i.e. without a cell-penetrating peptide) were over-expressed in E. coli using the expression vector pET28. The APIM peptide was expressed alone or as part of a fusion protein with EYFP. Expression of EYFP alone was used as a control.
The expression vectors containing the respective peptides were transfected into the bacterial strain E. coli BL21 (ripl). Single colonies, 4-6 of each strain, were inoculated in […] LB media (+Km/Clm) in 96 wells plates, and incubated at 37° C. Overnight cultures were diluted 1:100 and grown for 1 h before induction with 1 mM IPTG (initiating peptide expression). OD was measured every hour.
In order to verify that the extended APIM peptides have an anti-bacterial effect, peptides containing only the “extended” APIM sequence (i.e. without a cell-penetrating peptide) were over-expressed in E. coli using the expression vector pET28, using the method described in Example 7. […] The bacterial strain without a plasmid was used as a further control.

≈ marks a conversion by molar mass, not a printed value. Read-outs that look alike come from different tables or passages of the source. Ends that are not written are not given here.

β-clamp protein from E. coli, sequence (P0A988 whole entry): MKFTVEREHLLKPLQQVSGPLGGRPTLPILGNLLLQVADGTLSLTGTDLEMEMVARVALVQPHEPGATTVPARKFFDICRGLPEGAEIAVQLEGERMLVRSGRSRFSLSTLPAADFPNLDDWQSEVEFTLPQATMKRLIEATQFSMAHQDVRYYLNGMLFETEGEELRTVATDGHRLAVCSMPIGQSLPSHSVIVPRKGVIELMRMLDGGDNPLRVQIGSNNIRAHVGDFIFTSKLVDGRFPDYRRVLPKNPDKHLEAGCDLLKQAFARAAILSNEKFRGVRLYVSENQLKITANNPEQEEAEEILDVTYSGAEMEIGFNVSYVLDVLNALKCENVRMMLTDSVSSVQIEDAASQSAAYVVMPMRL

Consider `O=C(N[C@H](CO)[C@H](O)c1ccc([N+](=O)[O-])cc1)C(Cl)Cl` [Chloramphenicol], for which the MIC worked out at 2 µg/mL (≈ 6.19 µM) with E. coli NCIMB 12210 (APIM (ATX-101) conc. 2 μg/ml); 2 µg/mL (≈ 6.19 µM) in the assay on E. coli NCIMB 12210 (APIM (ATX-101) conc. 4 μg/ml); 1 µg/mL (≈ 3.09 µM) with E. coli NCIMB 12210 (APIM (ATX-101) conc. 8 μg/ml); 2 µg/mL (≈ 6.19 µM) in the assay on E. coli NCIMB 12210 (APIM conc. 0 μg/ml); 2 µg/mL (≈ 6.19 µM) with E. faecium CTC 492 (APIM (ATX-101) conc. 6.5 μg/ml); 1 µg/mL (≈ 3.09 µM) with E. faecium CTC 492 (APIM (ATX-101) conc. 13 μg/ml). For the same compound, in the assay on E. faecium CTC 492 (APIM conc. 0 μg/ml), the MIC is 2 µg/mL (≈ 6.19 µM).

Consider `CO[C@@H]1[C@@H](OC(N)=O)[C@@H](O)[C@H](Oc2ccc3c(O)c(NC(=O)c4ccc(O)c(CC=C(C)C)c4)c(=O)oc3c2C)OC1(C)C` [Novobiocin], for which the MIC was found to be 32 µg/mL (≈ 52.2 µM) in the assay on E. coli NCIMB 12210 (APIM (ATX-101) conc. 2 μg/ml); 8 µg/mL (≈ 13.1 µM) in the assay on E. coli NCIMB 12210 (APIM (ATX-101) conc. 4 μg/ml); 4 µg/mL (≈ 6.53 µM) in the assay on E. coli NCIMB 12210 (APIM (ATX-101) conc. 8 μg/ml); 64 µg/mL (≈ 104 µM) in the assay on E. coli NCIMB 12210 (APIM conc. 0 μg/ml); 8 µg/mL (≈ 13.1 µM) in the assay with A. baumanii ATCC 19606 (APIM (ATX-101) conc. 2 μg/ml); 8 µg/mL (≈ 13.1 µM) in the assay on A. baumanii ATCC 19606 (APIM (ATX-101) conc. 4 μg/ml). Also, the MIC in the assay on A. baumanii ATCC 19606 (APIM (ATX-101) conc. 8 μg/ml) amounted to 2 µg/mL (≈ 3.26 µM); in the assay with A. baumanii ATCC 19606 (APIM conc. 0 μg/ml) it was 8 µg/mL (≈ 13.1 µM).

Consider `N=C(N)NCCC[C@H](NC(=O)[C@H](CCCNC(=N)N)NC(=O)[C@H](CCCNC(=N)N)NC(=O)[C@H](CCCNC(=N)N)NC(=O)[C@H](CCCNC(=N)N)NC(=O)[C@H](CCCNC(=N)N)NC(=O)[C@H](CCCNC(=N)N)NC(=O)[C@H](CCCNC(=N)N)NC(=O)[C@H](CCCNC(=N)N)NC(=O)[C@H](CCCNC(=N)N)NC(=O)[C@@H](N)CCCNC(=N)N)C(=O)O` [R11, RRRRRRRRRRR, reference compound], for which the MIC in assay [1] is 118 µg/mL. Moreover, the “interaction with the β-clamp protein” value in [2] is listed as “does not interact with the β-clamp protein”.

For “MDRFLSKWKKKRKIRRRRRRRRRRR [SEQ ID NO: 1301]”, the MIC in assay [1] stood at 7.5 µM; against E. faecium TO-12, 25.3 µM; in [3], 37.9 µM; in assay [4] it was 7.5 µM.

For the compound “MDRFSLKWKKKRKIRRRRRRRRRRR [SEQ ID NO: 1304]”, the MIC in [1] amounted to 7.5 µM; with E. faecium TO-12, 25.3 µM; in [3], 37.9 µM; in assay [4] it was 7.5 µM.

On to “MDRWAVKWKKKRKIRRRRRRRRRRR [SEQ ID NO: 1299]”, for which, in assay [1], the “MIC of Erythromycin (Relative values)” value is on record as 200. Besides, the “MIC compared with ATX-101” value in the assay on bacteria was “lower MICs than ATX-101”. Also, the MIC against E. faecium TO-12 stood at 25.3 µM; in assay [3], 37.9 µM; in assay [4] it was 7.5 µM.

For the compound “MDRWLSKWKKKRKIRRRRRRRRRRR [SEQ ID NO: 1302]”, the “MIC of Erythromycin (Relative values)” value in assay [1] was found to be 200. The MIC in the assay on E. faecium TO-12 came to 16.8 µM; in assay [3], 37.9 µM; in [4], 7.5 µM.

On to “MDRWLTKWKKKRKIRRRRRRRRRRR [SEQ ID NO: 1300]”, for which, in assay [1], the “MIC of Erythromycin (Relative values)” value stood at 100. Moreover, the MIC was 25.3 µM against E. faecium TO-12, 37.9 µM in assay [3] and 7.5 µM in assay [4].

“MDRWSVKWKKKRKIRRRRRRRRRRR [SEQ ID NO: 1298]”: the “MIC of Erythromycin (Relative values)” value in assay [1] turned out to be 100. For the same compound, in the assay on bacteria, the “MIC compared with ATX-101” value was “lower MICs than ATX-101”. Besides, the values for the MIC (in the assay with E. faecium TO-12; in assay [3]; in [4]) were 37.9 µM, 37.9 µM and 7.5 µM, respectively.

On to RFSLK (APIM variant) [SEQ ID NO: 1291], for which the “bacterial growth on overexpression of APIM peptide (OD)” value (“bacterial growth on overexpression” for short) in the assay on E. coli BL21 (ripl) was “particularly effective”.

Turning to RWLTK (APIM variant) [SEQ ID NO: 1293], in the assay with E. coli BL21 (ripl), the “bacterial growth on overexpression” value is on record as “particularly effective”.

Take RWLVK (APIM) [SEQ ID NO: 1290]: the “bacterial growth on overexpression” value in the assay with E. coli BL21 (ripl) is given as “inhibits bacterial growth”.

Take RWLVP (APIM variant) [SEQ ID NO: 1292]: the “bacterial growth on overexpression” value in the assay with E. coli BL21 (ripl) was “particularly effective”.

The values are drawn from patent publication US10570180B2, “Anti-bacterial agents and their use in therapy” (priority 2015, dated 2020).
